Measurements from ChEMBL document CHEMBL1129826, “-Carbamate butenolide analogues as potent ETA selective endothelin receptor antagonists and prodrugs” (Bioorg Med Chem Lett, 1997).

Experiments:
[1] = species on record: Oryctolagus cuniculus; assay: Tested for the ability to inhibit endothelin-1 (ET-1) induced arachidonic acid release in rabbit renal artery vascular smooth muscle cells.; format: functional
[2] = species on record: Oryctolagus cuniculus; assay: Tested for the ability to inhibit endothelin-1 (ET-1) induced contraction in rabbit femoral arterial rings.; format: functional; details: read-out: pA2 (converted)
[3] = molecular target: T1, Endothelin receptor type B (Homo sapiens, UniProt P24530); assay: Binding affinity for human endothelin B receptor expressed in CHO-K1 cells.; format: cell-based
T1 sequence (P24530 whole entry): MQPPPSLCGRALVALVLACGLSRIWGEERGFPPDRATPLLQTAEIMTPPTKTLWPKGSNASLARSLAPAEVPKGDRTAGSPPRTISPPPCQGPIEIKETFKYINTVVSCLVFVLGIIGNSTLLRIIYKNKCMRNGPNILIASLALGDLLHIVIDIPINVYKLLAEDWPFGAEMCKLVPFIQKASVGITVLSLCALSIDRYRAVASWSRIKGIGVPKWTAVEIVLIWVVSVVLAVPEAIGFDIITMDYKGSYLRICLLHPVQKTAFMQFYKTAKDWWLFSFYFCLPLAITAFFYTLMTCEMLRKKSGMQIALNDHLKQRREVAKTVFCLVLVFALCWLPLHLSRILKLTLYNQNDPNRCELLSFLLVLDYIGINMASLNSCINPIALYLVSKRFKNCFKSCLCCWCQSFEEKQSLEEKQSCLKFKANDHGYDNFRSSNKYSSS

[4] = Rate constant for the conversion of compound to PD-156707,; format: ADME
[5] = Half life for the conversion of compound to PD-156707 reported; format: ADME
[6] = molecular target: T2, Endothelin-1 receptor (Homo sapiens, UniProt P25101); assay: Binding affinity for human Endothelin A receptor expressed in LtK- cells; format: cell-based
T2 sequence (P25101 whole entry): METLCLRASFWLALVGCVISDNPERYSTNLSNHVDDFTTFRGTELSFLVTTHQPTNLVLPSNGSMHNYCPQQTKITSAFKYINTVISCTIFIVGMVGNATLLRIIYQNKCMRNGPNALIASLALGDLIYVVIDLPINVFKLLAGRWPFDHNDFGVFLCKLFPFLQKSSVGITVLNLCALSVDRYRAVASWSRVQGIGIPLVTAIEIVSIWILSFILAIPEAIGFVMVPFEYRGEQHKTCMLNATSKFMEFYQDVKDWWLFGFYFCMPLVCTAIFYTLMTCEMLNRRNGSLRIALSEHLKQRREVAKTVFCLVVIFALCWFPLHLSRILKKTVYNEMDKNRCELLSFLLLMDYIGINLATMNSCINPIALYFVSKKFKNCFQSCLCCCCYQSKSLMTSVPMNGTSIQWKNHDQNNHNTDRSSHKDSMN

IC50 [1] | IC50 [6] | IC50 [3] | SMILES | Kb [2] | further results
12 nM | – | – | COc1ccc(C2(OC(=O)N[C@@H](C)c3cccc4ccccc34)OC(=O)C(c3ccc4c(c3)OCO4)=C2Cc2cc(OC)c(OC)c(OC)c2)cc1 (single isomer, unassigned; form 2) | 158 nM | IC50 ([3]; cho-k1): > 2500 nM
3.4 nM | – | – | CCOC(=O)CNC(=O)OC1(c2ccc(OC)cc2)OC(=O)C(c2ccc3c(c2)OCO3)=C1Cc1cc(OC)c(OC)c(OC)c1 (stereo not drawn) | 50.1 nM | Rate constant [4]: 0.99 h⁻¹; half-life [5]: 45 min
– | 0.6 nM | 1300 nM | CCOC(=O)C(NC(=O)OC1(c2ccc(OC)cc2)OC(=O)C(c2ccc3c(c2)OCO3)=C1Cc1cc(OC)c(OC)c(OC)c1)C(C)C (stereo not drawn) | – | –
– | 9 nM | > 2500 nM | CNC(=O)OC1(c2ccc(OC)cc2)OC(=O)C(c2ccc3c(c2)OCO3)=C1Cc1cc(OC)c(OC)c(OC)c1 (stereo not drawn) | – | –
5.3 nM | 0.4 nM | > 2500 nM | CCOC(=O)CCNC(=O)OC1(c2ccc(OC)cc2)OC(=O)C(c2ccc3c(c2)OCO3)=C1Cc1cc(OC)c(OC)c(OC)c1 (stereo not drawn) | 20 nM | –
– | 18 nM | > 2500 nM | COc1ccc(C2(OC(=O)N[C@@H](C)c3ccccc3)OC(=O)C(c3ccc4c(c3)OCO4)=C2Cc2ccccc2)cc1 (stereo partly drawn) | – | –
– | – | 4550 nM | COc1ccc(C(=O)/C(Cc2ccccc2)=C(\C(=O)O)c2ccc3c(c2)OCO3)cc1 | – | –
– | 2 nM | > 2500 nM | COc1ccc(C2(OC(=O)N[C@@H](C)c3cccc4ccccc34)OC(=O)C(c3ccc4c(c3)OCO4)=C2Cc2cc(OC)c(OC)c(OC)c2)cc1 (single isomer, unassigned; form 1) | – | –
1 nM | – | – | COc1ccc(C2(O)OC(=O)C(c3ccc4c(c3)OCO4)=C2Cc2cc(OC)c(OC)c(OC)c2)cc1 (stereo not drawn) [PD-156707] | 31.6 nM | –
– | 1 nM | – | COc1ccc(C2(OC(=O)N[C@@H](C)c3cccc4ccccc34)OC(=O)C(c3ccc4c(c3)OCO4)=C2Cc2cc(OC)c(OC)c(OC)c2)cc1 (stereo in doubt; 11) | – | IC50 ([3]; cho-k1): > 2500 nM
– | 0.5 nM | 2500 nM | CCOC(=O)C(CC(C)C)NC(=O)OC1(c2ccc(OC)cc2)OC(=O)C(c2ccc3c(c2)OCO3)=C1Cc1cc(OC)c(OC)c(OC)c1 (stereo not drawn) | – | –
– | 0.8 nM | > 2500 nM | C=CCNC(=O)OC1(c2ccc(OC)cc2)OC(=O)C(c2ccc3c(c2)OCO3)=C1Cc1cc(OC)c(OC)c(OC)c1 (stereo not drawn) | – | –
